Results as given in PubChem BioAssay AID330 (DTP/NCI, 2004).
“And” between values parts separate entries of the source, which are not always exact repeats. Identical values can stand only once. Toxic doses and inconclusive results are not listed.

Tested on: P388 leukemia ip, CD2F1 mice, survival T/C
Assay: NCI In Vivo Anticancer Drug Screen. Data for tumor model P388 Leukemia (intraperitoneal) in CD2F1 (CDF1) mice
Conditions: endpoint: median survival time, higher = longer survival
Summary of the method: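 Mice carrying the transplanted tumor received test compound or vehicle. Survival was recorded in each group, and the value is the treated-group measurement divided by that of the vehicle-treated control group.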

[1] = dose: 100.0 mg/kg/injection, schedule: Q04DX003 (ip), vehicle: Klucel (hydroxypropylcellulose) (HPC)
[2] = dose: 200.0 mg/kg/injection, schedule: Q04DX003 (ip), vehicle: Klucel (hydroxypropylcellulose) (HPC)
[3] = dose: 400.0 mg/kg/injection, schedule: Q04DX003 (ip), vehicle: Klucel (hydroxypropylcellulose) (HPC)
[4] = dose: 50.0 mg/kg/injection, schedule: Q01DX009 (ip), vehicle: Klucel (hydroxypropylcellulose) (HPC)
[5] = dose: 100.0 mg/kg/injection, schedule: Q01DX009 (ip), vehicle: Klucel (hydroxypropylcellulose) (HPC)
[6] = dose: 60.0 mg/kg/injection, schedule: Q01DX005 (ip), vehicle: saline with Tween-80
[7] = dose: 120.0 mg/kg/injection, schedule: Q01DX005 (ip), vehicle: saline with Tween-80
[8] = dose: 50.0 mg/kg/injection, schedule: Q01DX005 (ip), vehicle: Klucel (hydroxypropylcellulose) (HPC)
[9] = dose: 100.0 mg/kg/injection, schedule: Q01DX005 (ip), vehicle: Klucel (hydroxypropylcellulose) (HPC)
[10] = dose: 50.0 mg/kg/injection, schedule: Q01DX005 (ip), vehicle: saline with Tween-80
[11] = dose: 100.0 mg/kg/injection, schedule: Q01DX005 (ip), vehicle: saline with Tween-80
[12] = dose: 200.0 mg/kg/injection, schedule: Q01DX005 (ip), vehicle: saline with Tween-80
[13] = dose: 50.0 mg/kg/injection, schedule: Q01DX005 (ip), vehicle: saline
[14] = dose: 200.0 mg/kg/injection, schedule: Q01DX009 (ip), vehicle: Klucel (hydroxypropylcellulose) (HPC)
[15] = dose: 12.5 mg/kg/injection, schedule: Q01DX005 (ip), vehicle: Klucel (hydroxypropylcellulose) (HPC)
[16] = dose: 25.0 mg/kg/injection, schedule: Q01DX005 (ip), vehicle: Klucel (hydroxypropylcellulose) (HPC)
[17] = dose: 50.0 mg/kg/injection, schedule: Q01DX009 (ip), vehicle: saline with Tween-80
[18] = dose: 100.0 mg/kg/injection, schedule: Q01DX009 (ip), vehicle: saline with Tween-80
[19] = dose: 200.0 mg/kg/injection, schedule: Q01DX009 (ip), vehicle: saline with Tween-80

## CN=C(N)N/N=C(\c1ccc(Cl)cc1)c1ccc([N+](=O)[O-])cc1Cl
dose: 25.0 mg/kg/injection, schedule: Q04DX002 (ip), vehicle: saline with Tween-80
  T/C: 100 % of control
dose: 50.0 mg/kg/injection, schedule: Q04DX002 (ip), vehicle: saline with Tween-80
  T/C: 101 % of control

## CCCNC(=S)N/N=C(/C)c1nccc2ccccc12
[1]
  T/C: 108 % of control
[2]
  T/C: 101 % of control
[3]
  T/C: 99 % of control

## Nc1nc(N)nc(Cl)n1
dose: 12.5 mg/kg/injection, schedule: Q01DX009 (ip), vehicle: Klucel (hydroxypropylcellulose) (HPC)
  T/C: 100 % of control and 91 % of control
dose: 25.0 mg/kg/injection, schedule: Q01DX009 (ip), vehicle: Klucel (hydroxypropylcellulose) (HPC)
  T/C: 101 % of control and 104 % of control
[4]
  T/C: 123 % of control and 91 % of control
[5]
  T/C: 104 % of control and 96 % of control

## COc1ccc(S(=O)(=O)N/N=C/c2cc([N+](=O)[O-])cc(I)c2O)cc1OC
[6]
  T/C: 97 % of control
[7]
  T/C: 94 % of control
dose: 240.0 mg/kg/injection, schedule: Q01DX005 (ip), vehicle: saline with Tween-80
  T/C: 91 % of control

## CCOc1nc2ccc(NC(C)CN3CCN(CCc4ccccc4)CC3)cc2s1 (configuration not stated)
[8]
  T/C: 109 % of control
[9]
  T/C: 118 % of control

## CCC(C)(C(=O)Nc1ccc2nc(C)cc(N)c2c1)C(=O)Nc1ccc2nc(C)cc(N)c2c1
[10]
  T/C: 87 % of control
[11]
  T/C: 96 % of control
[12]
  T/C: 100 % of control

## CS(=O)(=O)C(=S)Sc1ccccc1
dose: 25.0 mg/kg/injection, schedule: Q01DX001 (ip), vehicle: saline with Tween-80
  T/C: 97 % of control
dose: 50.0 mg/kg/injection, schedule: Q01DX001 (ip), vehicle: saline with Tween-80
  T/C: 97 % of control

## CCCC(O)(CCC)C1=NCCN1
dose: 12.5 mg/kg/injection, schedule: Q01DX005 (ip), vehicle: saline
  T/C: 103 % of control
dose: 25.0 mg/kg/injection, schedule: Q01DX005 (ip), vehicle: saline
  T/C: 102 % of control
[13]
  T/C: 99 % of control and 102 % of control

## Cc1nn(-c2ccccc2)c([O-])c1[N+]#N
dose: 100.0 mg/kg/injection, schedule: Q04DX002 (ip), vehicle: Klucel (hydroxypropylcellulose) (HPC)
  T/C: 102 % of control
dose: 200.0 mg/kg/injection, schedule: Q04DX002 (ip), vehicle: Klucel (hydroxypropylcellulose) (HPC)
  T/C: 102 % of control
dose: 400.0 mg/kg/injection, schedule: Q04DX002 (ip), vehicle: Klucel (hydroxypropylcellulose) (HPC)
  T/C: 100 % of control

## COC(=O)Nc1nc2ccc(C(C)(O)c3cccs3)cc2[nH]1 (configuration not stated)
dose: 25.0 mg/kg/injection, schedule: Q01DX005 (ip), vehicle: saline with Tween-80
  T/C: 100 % of control
[10]
  T/C: 103 % of control
[11]
  T/C: 103 % of control
[12]
  T/C: 100 % of control

## N#CCSCC(N)C(=O)O (configuration not stated)
[10]
  T/C: 103 % of control
[11]
  T/C: 105 % of control
[12]
  T/C: 105 % of control

## NC1(C(=O)NCSc2ccccc2)CC=CCC1 (configuration not stated)
dose: 45.5 mg/kg/injection, schedule: Q01DX005 (ip), vehicle: Klucel (hydroxypropylcellulose) (HPC)
  T/C: 97 % of control
dose: 91.0 mg/kg/injection, schedule: Q01DX005 (ip), vehicle: Klucel (hydroxypropylcellulose) (HPC)
  T/C: 103 % of control
dose: 182.0 mg/kg/injection, schedule: Q01DX005 (ip), vehicle: Klucel (hydroxypropylcellulose) (HPC)
  T/C: 96 % of control

## Cc1nccn1CC(=O)c1ccccc1
[6]
  T/C: 104 % of control
[7]
  T/C: 104 % of control

## Cc1cc(C)c(SSc2nnnn2-c2ccccc2)c(C)c1
[4]
  T/C: 108 % of control
[5]
  T/C: 103 % of control
[14]
  T/C: 94 % of control

## C=C(Br)C(=NC(C)(C)C)Nc1ccccc1Cl
dose: 6.25 mg/kg/injection, schedule: Q01DX005 (ip), vehicle: Klucel (hydroxypropylcellulose) (HPC)
  T/C: 98 % of control
[15]
  T/C: 109 % of control
[16]
  T/C: 111 % of control and 120 % of control and 118 % of control
[8]
  T/C: 118 % of control
[9]
  T/C: 110 % of control

## [CH3][Sn]1([CH3])[O]C(=O)C(=O)[O]1
dose: 6.25 mg/kg/injection, schedule: Q01DX001 (ip), vehicle: Klucel (hydroxypropylcellulose) (HPC)
  T/C: 105 % of control
dose: 12.5 mg/kg/injection, schedule: Q01DX001 (ip), vehicle: Klucel (hydroxypropylcellulose) (HPC)
  T/C: 102 % of control
dose: 25.0 mg/kg/injection, schedule: Q01DX001 (ip), vehicle: Klucel (hydroxypropylcellulose) (HPC)
  T/C: 101 % of control

## C=CS(=O)(=O)c1ccc(Nc2cc(S(=O)(=O)O)c(N)c3c2C(=O)c2ccccc2C3=O)cc1
dose: 25.0 mg/kg/injection, schedule: Q01DX009 (ip), vehicle: saline with Tween-80
  T/C: 116 % of control and 120 % of control
[17]
  T/C: 104 % of control and 115 % of control and 123 % of control
[18]
  T/C: 107 % of control and 120 % of control and 123 % of control
[19]
  T/C: 105 % of control and 118 % of control

## C=CC(=O)Oc1ccccc1/C=C/C(=O)CCCCCC
[10]
  T/C: 98 % of control
[11]
  T/C: 107 % of control
[12]
  T/C: 105 % of control

## O=c1[nH]c2c([N+](=O)[O-])cc(Cl)cc2nc1/C=C(\O)c1cccnc1
dose: 60.0 mg/kg/injection, schedule: Q01DX005 (ip), vehicle: Klucel (hydroxypropylcellulose) (HPC)
  T/C: 99 % of control
dose: 120.0 mg/kg/injection, schedule: Q01DX005 (ip), vehicle: Klucel (hydroxypropylcellulose) (HPC)
  T/C: 99 % of control
dose: 240.0 mg/kg/injection, schedule: Q01DX005 (ip), vehicle: Klucel (hydroxypropylcellulose) (HPC)
  T/C: 111 % of control

## CCCCCCC(=O)/C=C/c1c(OC)cc(OC)cc1OC
[17]
  T/C: 101 % of control
[18]
  T/C: 101 % of control
[19]
  T/C: 97 % of control

## COC(=O)C(C/C(=C/NC(=O)c1ccccc1)NC(=O)c1ccccc1)NC(=O)c1ccccc1 (configuration not stated)
[10]
  T/C: 98 % of control
[11]
  T/C: 98 % of control
[12]
  T/C: 100 % of control

## Cc1nc2nnc(N)n2nc1C
[1]
  T/C: 106 % of control
[2]
  T/C: 97 % of control
[3]
  T/C: 96 % of control

## CN(C)C(=S)C(O)(c1ccccc1)c1ccccc1
[4]
  T/C: 90 % of control
[5]
  T/C: 100 % of control
[14]
  T/C: 97 % of control

## C=C(C)[C@@H]1CC=C(C)[C@H](O)C1
dose: 50.0 mg/kg/injection, schedule: Q01DX009 (ip), vehicle: saline
  T/C: 111 % of control
dose: 100.0 mg/kg/injection, schedule: Q01DX009 (ip), vehicle: saline
  T/C: 102 % of control
dose: 200.0 mg/kg/injection, schedule: Q01DX009 (ip), vehicle: saline
  T/C: 100 % of control

## NC(N)=NS(=O)(=O)c1ccc(N=NC2=C(O)C(c3ccccc3)N(c3ccccc3)C2=O)cc1 (configuration not stated)
dose: 100.0 mg/kg/injection, schedule: Q01DX001 (ip), vehicle: saline with Tween-80
  T/C: 102 % of control
dose: 200.0 mg/kg/injection, schedule: Q01DX001 (ip), vehicle: saline with Tween-80
  T/C: 102 % of control
dose: 400.0 mg/kg/injection, schedule: Q01DX001 (ip), vehicle: saline with Tween-80
  T/C: 90 % of control

## COc1ccc(C=Nc2c(N)[nH]c(=S)[nH]c2=O)cc1
dose: 100.0 mg/kg/injection, schedule: Q04DX002 (ip), vehicle: saline with Tween-80
  T/C: 100 % of control
dose: 200.0 mg/kg/injection, schedule: Q04DX002 (ip), vehicle: saline with Tween-80
  T/C: 106 % of control
dose: 400.0 mg/kg/injection, schedule: Q04DX002 (ip), vehicle: saline with Tween-80
  T/C: 107 % of control
dose: 600.0 mg/kg/injection, schedule: Q04DX002 (ip), vehicle: saline with Tween-80
  T/C: 106 % of control

## Cc1ccc(NN=O)nc1
dose: 6.25 mg/kg/injection, schedule: Q01DX009 (ip), vehicle: water
  T/C: 151 % of control and 152 % of control
dose: 12.5 mg/kg/injection, schedule: Q01DX009 (ip), vehicle: water
  T/C: 153 % of control and 183 % of control

## O=C1c2ccccc2C(=O)C1C(=Nc1ccccc1Cl)c1ccccc1
[15]
  T/C: 90 % of control
[16]
  T/C: 88 % of control
[8]
  T/C: 86 % of control
[9]
  T/C: 94 % of control

## CC(=O)N1CCCC2=C1CCCC2
dose: 25.0 mg/kg/injection, schedule: Q04DX003 (ip), vehicle: saline
  T/C: 100 % of control
dose: 50.0 mg/kg/injection, schedule: Q04DX003 (ip), vehicle: saline
  T/C: 103 % of control
dose: 100.0 mg/kg/injection, schedule: Q04DX003 (ip), vehicle: saline
  T/C: 104 % of control and 92 % of control
dose: 400.0 mg/kg/injection, schedule: Q04DX003 (ip), vehicle: saline
  T/C: 101 % of control

## C=C=C(C)C(c1ccccc1)N(C)C (configuration not stated)
[13]
  T/C: 108 % of control
dose: 100.0 mg/kg/injection, schedule: Q01DX005 (ip), vehicle: saline
  T/C: 109 % of control
